Key:
Test in all cases: capacity of strains to grow in the presence of sulphur dioxide
Assay type in all cases: cell-based
[1] = test system: Brettanomyces bruxellensis strains of the beer triploid group; conditions: 14 days of culture, 8 strains tested
Procedure: (§1) The 33 strains of Brettanomyces bruxellensis are cultivated in a medium in the absence or the presence of different concentrations of sulphur dioxide SO2 in the culture medium (0 mg/L, 0.2 mg/L, 0.4 mg/L and 0.6 mg/L).
(§2) After 14 days of culture, the capacity of the strains to grow in the different media is evaluated.

[2] = test system: Brettanomyces bruxellensis strains of the oenological triploid group; conditions: 14 days of culture, 8 strains tested
Procedure: as §1, §2

[3] = test system: Brettanomyces bruxellensis strains of the oenological diploid group; conditions: 14 days of culture, 17 strains tested
Procedure: as §1, §2

[4] = 0.2 mg/L active SO2 in the culture medium
[5] = 0.4 mg/L active SO2 in the culture medium
[6] = 0.6 mg/L active SO2 in the culture medium

O=S=O [sulphur dioxide]
Number of strains with the capacity to grow [1, 4]: 3 | Number of strains with the capacity to grow [1, 5]: 0 | Number of strains with the capacity to grow [1, 6]: 0 | Number of strains with the capacity to grow [2, 4]: 8 | Number of strains with the capacity to grow [2, 5]: 8 | Number of strains with the capacity to grow [2, 6]: 4 | Number of strains with the capacity to grow [3, 4]: 6 | Number of strains with the capacity to grow [3, 5]: 1 | Number of strains with the capacity to grow [3, 6]: 0

Source: US20180312930A1, “METHOD FOR ANALYZING A SAMPLE TO DETECT THE PRESENCE OF SULPHITE-RESISTANT YEASTS OF THE BRETTANOMYCES BRUXELLENSIS SPECIES AND KIT FOR IMPLEMENTING SAME” (UNIVERSITE DE BORDEAUX, priority 2015, published 2018)
